Target: T1, α5-GABAA receptor (Homo sapiens, UniProt P18507+P31644)
T1 construct: expressed in transfected cells; host or cells: HEK293, monoclonal stably transfected line
Assay: Cell-level screening: whole cell patch clamp, inverse agonist efficacy on α5-GABAA receptor expressed in HEK293
Format: cell-based
Details: drug 100 nM, GABA 0.05 μM, HEK293 expressing α5, β3 and γ2 subunits, clamped at −60 mV; read-out: Compound inverse agonist efficacy %
Method in brief: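 Whole-cell patch clamp at −60 mV on HEK293 stably expressing α5β3γ2, pH 7.4 extracellular/CsCl internal solutions. Current evoked by 0.05 μM GABA, then compound in GABA solution; screening at 100 nM, dose-response 0.3–300 nM. Inverse agonist efficacy as % change of GABA current.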

T1 sequence (P31644 32-462): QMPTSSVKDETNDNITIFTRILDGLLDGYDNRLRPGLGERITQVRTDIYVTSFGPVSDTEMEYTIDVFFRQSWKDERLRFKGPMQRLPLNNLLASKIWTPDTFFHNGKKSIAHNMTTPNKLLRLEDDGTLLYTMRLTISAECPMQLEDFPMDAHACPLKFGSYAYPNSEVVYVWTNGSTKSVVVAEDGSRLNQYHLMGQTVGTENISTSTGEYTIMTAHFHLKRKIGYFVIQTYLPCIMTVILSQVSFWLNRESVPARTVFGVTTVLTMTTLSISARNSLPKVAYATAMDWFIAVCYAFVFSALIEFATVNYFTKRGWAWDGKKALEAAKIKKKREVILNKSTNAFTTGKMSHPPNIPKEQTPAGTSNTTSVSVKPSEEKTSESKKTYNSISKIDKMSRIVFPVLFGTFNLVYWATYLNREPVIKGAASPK
T1 sequence (P28472 26-473 partner): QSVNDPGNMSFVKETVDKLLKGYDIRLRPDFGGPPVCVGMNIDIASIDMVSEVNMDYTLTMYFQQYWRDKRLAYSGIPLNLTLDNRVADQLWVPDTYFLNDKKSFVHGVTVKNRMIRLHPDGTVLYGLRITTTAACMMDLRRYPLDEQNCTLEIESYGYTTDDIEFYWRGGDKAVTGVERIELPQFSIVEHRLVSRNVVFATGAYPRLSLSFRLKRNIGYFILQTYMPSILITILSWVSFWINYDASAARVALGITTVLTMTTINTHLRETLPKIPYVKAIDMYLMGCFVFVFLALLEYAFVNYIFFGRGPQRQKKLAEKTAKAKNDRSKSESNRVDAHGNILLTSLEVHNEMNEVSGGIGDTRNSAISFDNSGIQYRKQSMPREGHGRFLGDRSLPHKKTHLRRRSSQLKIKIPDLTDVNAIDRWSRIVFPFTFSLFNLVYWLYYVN
T1 sequence (P18507 40-467 isoform P18507-1 limits assumed): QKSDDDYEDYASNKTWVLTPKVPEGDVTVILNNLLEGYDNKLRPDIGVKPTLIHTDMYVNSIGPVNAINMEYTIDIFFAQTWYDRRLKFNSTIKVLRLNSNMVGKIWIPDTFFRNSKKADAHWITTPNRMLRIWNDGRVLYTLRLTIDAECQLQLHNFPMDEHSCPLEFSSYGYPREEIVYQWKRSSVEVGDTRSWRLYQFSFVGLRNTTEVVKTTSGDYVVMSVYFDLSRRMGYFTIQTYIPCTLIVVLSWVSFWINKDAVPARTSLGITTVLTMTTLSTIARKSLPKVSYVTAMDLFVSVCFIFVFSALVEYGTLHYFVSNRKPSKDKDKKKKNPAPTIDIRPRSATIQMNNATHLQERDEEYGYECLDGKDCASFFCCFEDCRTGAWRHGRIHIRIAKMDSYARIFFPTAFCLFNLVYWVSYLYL

SMILES	inhibition at 0.1 µM
COCCOCc1ccc(COc2nn3c(-c4cc(C)on4)nnc3cc2OC)nn1 [Embodiment 166]	49.9%
COCCCOc1ccc(COc2nn3c(-c4noc(C)n4)nnc3cc2OC)nn1 [Embodiment 129]	45.8%
COc1cc2nnc(-c3cc(C)on3)n2nc1OCc1ccc(OC2COC2)nn1 [Embodiment 153]	49.4%
COc1cc2nnc(-c3cc(C)on3)n2nc1OCc1ccc(OC2CCOCC2)nn1 [Embodiment 152]	39.3%
COc1cc2nnc(-c3cc(C)on3)n2nc1OCc1ccc(C2(F)CN(C3COC3)C2)cn1 [Embodiment 128]	41.2%
COc1cc2nnc(-c3cc(C)on3)n2nc1OCc1ccc2c(n1)CCN(C1CCOCC1)C2 [Embodiment 186]	56%
COc1cc2nnc(-c3cc(C)on3)n2nc1OCc1ccc2c(n1)CCN(Cc1cc(C)on1)C2 [Embodiment 187]	50.4%
COc1cc2nnc(-c3cc(C)on3)n2nc1OCc1ccc2c(n1)CCN(C(CO)CO)C2 [Embodiment 185]	45.6%
COc1cc2nnc(-c3cc(C)on3)n2nc1OCc1ccc(OC2CCOC2)nn1 (centres unmarked) [Embodiment 154]	45.2%
COCc1cn2nc(COc3nn4c(-c5cc(C)on5)nnc4cc3OC)ccc2n1 [Embodiment 213]	59.5%
COc1cc2nnc(-c3cc(C)on3)n2nc1OCc1ccc2c(n1)CCN(C1COC1)C2 [Embodiment 84, 3-(7-Methoxy-6-((6-(oxetan-3-yl)-5,6,7,8-tetrahydro-1,6-naphthyridin-2-yl)methoxy)-[1,2,4]triazolo[4,3-b]pyridazin-3-yl)-5-methylisoxazole]	39.6%
COc1cc2nnc(-c3cc(C)on3)n2nc1OCc1ccc2c(n1)CN(C1CCOCC1)C2 [Embodiment 253]	56.1%
COCc1ccc(COc2nn3c(-c4cc(C)on4)nnc3cc2OC)nn1 [Embodiment 151]	55.8%
COc1cc2nnc(-c3cc(C)on3)n2nc1OCc1ccc2c(n1)CN(C)C2 [Embodiment 160, 3-(7-Methoxy-6-((6-methyl-6,7-dihydro-5H-pyrrolo[3,4-b]pyridin-2-yl)methoxy)-[1,2,4]triazolo[4,3-b]pyridazin-3-yl)-5-methylisoxazole]	49.3%

From patent US12637468B2, “Substituted [1,2,4]triazolo[4,3-b]pyridazines as GABAA receptor modulators” (SHANGHAI SIMR BIOTECHNOLOGY CO., LTD., priority 2019, dated 2026)
